Data: patent US20130336988A1, “METHODS FOR TREATING EARLY STAGE OR MILD NEUROLOGICAL DISORDERS” (NEW YORK UNIVERSITY, priority 2010, published 2013)

Assays:
[1] = system: E15 DIV3 mouse hippocampal neurons; assay: Pretreatment with antibodies or inhibitors before proNGF addition, growth cone / filopodial collapse; assay type: cell-based; conditions: for effect of pretreatment on proNGF-induced growth cone / filopodial collapse: pretreatment before proNGF for 20 min, 20 μg/ml antibody or control IgG 20 min, 100 nM Gö6976
Experimental: (§1) To assay which pathways are involved in filopodial collapse, 5-10 ng/ml proNGF, 10 ng/ml proBDNF, 25-50 ng/ml BDNF (Peprotech) or 25-100 ng/ml NGF (Harlan) was added to E15 primary hippocampal neurons for 20 min before fixation. In some cases, cells were pretreated with 100 nM K-252a (Calbiochem) for 20 min, 100 nM Gö6976 (Calbiochem) for 1 hour, 5 μM EHT1864 (Sigma) for 30 min or 100 nM ITX3 (ChemBridge Corporation, cat. no. 6007262) for 45 min. To block SorCS2, cells were incubated with 20 μg/ml anti-SorCS2 or control IgG for 20 min on ice before proNGF addition at 37° C.
(§2) DIV3 hippocampal neurons were fixed in 4% paraformaldehyde/20% sucrose for 10 min. The fixative was quenched with 50 mM NH4Cl in PBS for 5 min and cells were permeabilized with 0.1% TritonX-100 in PBS for 2 min. Alternatively, cells were fixed with ice-cold methanol for 5 min. Coverslips were blocked with 10% normal donkey serum, 2% bovine serum albumin and 0.25% fish skin gelatin in Tris-buffered saline for 30 min, incubated with primary antibodies diluted in blocking solution for 30 min, washed three times with Tris-buffered saline/0.25% fish skin gelatin, incubated with secondary antibodies mixed with Hoechst in blocking buffer for additional 30 min, washed and mounted using Mowio1488. Cells were imaged using a LSM510 laser-scanning confocal microscope equipped with a 40× Plan Neofluor NA1.3 DIC oil-immersion objective (Carl Zeiss Microimaging). Images were processed using LSM510 software (Zeiss) and ImageJ (NIH).
(§3) Primary hippocampal and cortical neurons were isolated from E15 C57BL/6 mouse embryos as previously described (PEREIRA, D. B. et al., Journal of Neuroscience 27:4859-4869 (2007)). Briefly, neurons were dissociated by incubation with 0.05% trypsin at 37° C. for 8 min followed by trituration with fire-polished glass Pasteur pipettes. Cells were plated on poly-D-lysine coated dishes and grown in Neurobasal medium containing B27, 0.5 mM glutamine (all Invitrogen) and 10 μM 5-fluorodeoxyuridine. Hippocampal neurons were transfected at DIV2 using Lipofectamine2000 (Invitrogen). For coverslips in a 24-well plate, 0.5 μg plasmid were mixed with 0.5 μl Lipofectamine2000, and for glass bottom dishes, 1.5 μg plasmid were mixed with 1.5 μl Lipofectamine2000. The complexes were added to the cells for 30-45 min, and then neurons were placed back into preconditioned media until analysis the following day. HT1080 cells were grown in DMEM/10% fetal bovine serum (both Invitrogen) and transfected using the AMAXA nucleofector (Lonza) according to manufacturer's instructions. 293FT cells were grown in DMEM/10% fetal bovine serum and transfected with Lipofectamine2000 according to manufacturer's instructions.

Rac = Rac activity assay (GST-Pak-CRIB pull-down of activated Rac); assay type: cell-based, mouse; conditions: primary neuronal cultures
Experimental: Rac activity assays were performed as described previously (NEUBRAND, V. E. et al., Journal of Cell Science 123:2111-2123 (2010)). […] Cells were lysed in lysis buffer supplemented with 10 mM MgCl, lysates were cleared by centrifugation at 9000 g for 1 min, and cleared lysates were incubated with GST or GST-Pak-CRIB beads for 30 min at 4° C. Beads were washed and isolated active Rac was analyzed by Western blot. As a control, extra lysates were incubated with 0.1 mM GDP or 0.1 mM GTPγS for 30 min at room temperature before incubation with GST-Pak-CRIB beads. Western blots were analyzed by densitometry using ImageJ software, and isolated active Rac was normalized to the input.
GST and GST-Pak-CRIB proteins were expressed in E. coli BL21DE3 cells at 25° C. for 3 hours. Bacteria were disrupted by incubation with PBS supplemented with lysozyme on ice for 30 min and subsequent addition of 1 mM MgCl2, 0.1% TritonX-100 and 0.1 mg/ml DNAse for an additional 30 min. Bacterial lysates were cleared by centrifugation for 5 min at 3000 g and cleared lysates were incubated with glutathione sepharose. Beads were washed and the purity of the recombinant proteins was analyzed by Coomassie blue staining. 20 μg of sepharose coupled purified protein was used per reaction.

[2] = system: E15 DIV3 mouse hippocampal neurons; assay: proNT-induced growth cone collapse in cultured hippocampal neurons (live imaging and immunofluorescence); assay type: cell-based; conditions: for growth cone collapse caused by the inhibitor alone: DIV3 hippocampal neurons, 5 μM EHT1864 30 min, 100 nM ITX3 45 min
Experimental: as §1, §2
Cells were plated on gridded glass bottom dishes (MatTek Corporation) and imaged at DIV3 in phenol red-free Neurobasal medium (Invitrogen) supplemented with 30 mM HEPES-NaOH, pH7.4 using an Olympus IX71 inverted microscope driven by IPLab software (BD Biosciences) and equipped with a 60× PlanApoN objective (NA 1.42), a Hamamatsu EM-CCD camera and a heated stage maintained at 37° C., or driven by softWoRX software (version 3.7.1, DeltaVision), and equipped with a CoolSnap HQ2 camera (Photometrics) and an environmental chamber maintained at 37° C. Images were taken every 15 seconds. After live imaging cells were fixed, counterstained for p75, located by grid number and examined for p75 expression. All movies were exported and processed using IPLab (BD Biosciences), softWoRX (version 3.7.1, DeltaVision) and ImageJ (NIH) software. Filopodia length and speed were both analyzed using ImageJ (NIH) software. For this, two times ten consecutive frames, spaced 5-10 min apart, were analyzed before and again after treatment. In the length analysis, a line was drawn along an individual filopodium and measured at every time point, and the measurements were averaged before and after treatment. For the speed analysis, the filopodial tip was tracked using the ImageJ Manual Tracking plugin. Up to four individual filopodia were analyzed per movie, and a minimum of four movies taken from separate experiments were analyzed per condition.
as §3, with “HT1080 cells were grown in DMEM/10% fetal bovine serum (both Invitrogen) and transfected using the AMAXA nucleofector (Lonza) according to manufacturer's instructions. 293FT cells were grown in DMEM/10% fetal bovine serum and transfected with Lipofectamine2000 according to manufacturer's instructions.” left out

Molecule	effect of pretreatment on proNGF-induced growth cone / filopodial collapse [1]	growth cone collapse caused by the inhibitor alone [2]	other results
20-28: small peptide inhibitor 20-28 (of PKC) (FARKGALRQ; UniProt P17252 20-28, looked up, fragment)	exposure to proNGF failed to induce collapse of actin-rich structures		
O=c1cc(CN2CCOCC2)occ1OCCCCCSc1ccnc2cc(C(F)(F)F)ccc12 [EHT 1864, reference compound]		led to the collapse of growth cone structures	Rac activity after inhibitor treatment (Rac): striking decrease in Rac activity
Cn1c2ccccc2c2c3c(c4c5ccccc5n(CCC#N)c4c21)CNC3=O [Gö6976]	exposure to proNGF failed to induce collapse of actin-rich structures		effect of the agent alone on neuronal / actin morphology ([1]; agent alone, without proNGF): had no effect on actin morphology
Cc1cc(/C=c2/sc3nc4ccccc4n3c2=O)c(C)n1-c1ccccc1 [ITX3, reference compound]		led to the collapse of growth cone structures	Rac activity after inhibitor treatment (Rac): striking decrease in Rac activity
C[C@@H](N)[C@H]1CC[C@H](C(=O)Nc2ccncc2)CC1 [Y-27632, reference compound]	nor did they interferen with proNGF-mediated growth cone collapse	neither induced growth cone collapse	
C3 transferase [reference compound]	nor did they interferen with proNGF-mediated growth cone collapse	neither induced growth cone collapse	
NGF: mature nerve growth factor (Harlan) (protein, UniProt P01139 122-241, looked up) Beta-nerve growth factor: SSTHPVFHMGEFSVCDSVSVWVGDKTTATDIKGKEVTVLAEVNINNSVFRQYFFETKCRASNPVESGCRGIDSKHWNSYCTTTHTFVKALTTDEKQAAWRFIRIDTACVCVLSRKATRRG			growth cone collapse ([2]; p75NTR-positive cells, 20 min exposure, 10 ng/ml proNGF, 10 ng/ml proBDNF with K252a, 5 ng/ml NGF): nor did NGF lead to actin rearrangements
